Values of other authors in paper PMC10066365, “Nemacol is a small molecule inhibitor of C. elegans vesicular acetylcholine transporter with anthelmintic potential” (Nature Communications, 2023).

Tested on: HEK293 cells
Conditions: cited from earlier work

SMILES: CCC1CCC(N2CCN(c3ccc([N+](=O)[O-])cc3)CC2)CC1 (centres unmarked) [Nemacol-2]
- result in previous counter-screens: adverse effects
- activity in preliminary HEK293 cell-based assays (ref Burns et al., 2015): higher activity
